# Assay results: patent US10689362B2, “Quinoxaline compounds as type III receptor tyrosine kinase inhibitors” (Development Center for Biotechnology, priority 2016, dated 2020)
# Columns and labels:
# [1] = test system: THP-1 human acute monocytic leukemia cell harboring NRAS G12D mutation; test: THP-1 cell proliferation assay (counter screen, CellTiter-96); type: cell-based; conditions: Cytotoxicity, THP-1 cells (counter screen), 72 hours
# Procedure, shortened: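 THP-1 cells, RTK-independent owing to NRAS G12D, seeded at 5000/well, incubated overnight at 37 °C/5% CO2, then exposed to increasing compound concentrations for 72 h. CellTiter96 AQueous One reagent added for 4 h; viability from absorbance at 490 nm.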
# [2] = target: FLT3 kinase (Homo sapiens (Human), UniProt P36888); test: FLT3 kinase assay (radiometric); type: biochemical; conditions: bound
# Sequence of FLT3 kinase (P36888 27-993): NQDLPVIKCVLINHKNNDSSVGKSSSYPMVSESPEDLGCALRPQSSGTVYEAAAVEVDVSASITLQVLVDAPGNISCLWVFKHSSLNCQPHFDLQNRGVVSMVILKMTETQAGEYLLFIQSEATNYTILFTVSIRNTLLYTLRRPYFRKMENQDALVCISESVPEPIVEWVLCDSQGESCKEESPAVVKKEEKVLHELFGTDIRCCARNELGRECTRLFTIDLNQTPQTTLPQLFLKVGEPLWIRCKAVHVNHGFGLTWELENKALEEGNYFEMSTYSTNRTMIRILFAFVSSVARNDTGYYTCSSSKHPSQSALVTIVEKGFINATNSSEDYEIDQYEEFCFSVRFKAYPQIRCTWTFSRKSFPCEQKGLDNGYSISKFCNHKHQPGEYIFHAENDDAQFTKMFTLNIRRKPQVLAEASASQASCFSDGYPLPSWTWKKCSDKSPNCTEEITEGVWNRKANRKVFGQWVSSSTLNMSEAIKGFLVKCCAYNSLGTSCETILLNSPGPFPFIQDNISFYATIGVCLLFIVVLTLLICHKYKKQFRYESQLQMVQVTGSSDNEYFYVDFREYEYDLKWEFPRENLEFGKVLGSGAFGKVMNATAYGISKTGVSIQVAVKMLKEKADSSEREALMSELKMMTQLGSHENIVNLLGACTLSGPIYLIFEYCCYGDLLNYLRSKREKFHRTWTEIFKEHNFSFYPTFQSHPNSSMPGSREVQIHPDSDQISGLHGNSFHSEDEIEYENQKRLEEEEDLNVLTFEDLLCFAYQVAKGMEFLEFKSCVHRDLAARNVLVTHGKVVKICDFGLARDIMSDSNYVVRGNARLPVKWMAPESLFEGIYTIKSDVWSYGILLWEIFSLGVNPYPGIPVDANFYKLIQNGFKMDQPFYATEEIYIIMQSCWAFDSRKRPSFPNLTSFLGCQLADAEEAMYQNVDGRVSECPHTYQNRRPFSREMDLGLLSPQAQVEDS
# Procedure, shortened: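 Recombinant FLT3 (5 ng) phosphorylating poly(Glu4:Tyr1) (2 μg) with 10 μM ATP plus [^33P]-ATP in MOPS pH 7.0 buffer, 4% DMSO final, 60 min at 30° C. Reaction stopped with phosphoric acid, filter-captured and scintillation-counted; IC50 derived from dose-response.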
# [3] = test system: CSF-1-dependent M-NFS-60 mouse myeloid leukemia cell; test: M-NFS-60 cell proliferation assay (CellTiter-96); type: cell-based; conditions: Cytotoxicity, M-NFS-60 cells, 72 hours
# Procedure, shortened: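 CSF-1-dependent M-NFS-60 cells seeded at 2000 cells/well, settled overnight at 37 °C, 5% CO2, then exposed to increasing compound concentrations for 72 h. Viability read by CellTiter 96 AQueous One reagent (4 h) at 490 nm absorbance.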
# [4] = target: PDGFRβ kinase (Homo sapiens (Human), UniProt P09619); test: PDGFRβ kinase assay (radiometric); type: biochemical; conditions: bound
# Sequence of PDGFRβ kinase (P09619 33-1106): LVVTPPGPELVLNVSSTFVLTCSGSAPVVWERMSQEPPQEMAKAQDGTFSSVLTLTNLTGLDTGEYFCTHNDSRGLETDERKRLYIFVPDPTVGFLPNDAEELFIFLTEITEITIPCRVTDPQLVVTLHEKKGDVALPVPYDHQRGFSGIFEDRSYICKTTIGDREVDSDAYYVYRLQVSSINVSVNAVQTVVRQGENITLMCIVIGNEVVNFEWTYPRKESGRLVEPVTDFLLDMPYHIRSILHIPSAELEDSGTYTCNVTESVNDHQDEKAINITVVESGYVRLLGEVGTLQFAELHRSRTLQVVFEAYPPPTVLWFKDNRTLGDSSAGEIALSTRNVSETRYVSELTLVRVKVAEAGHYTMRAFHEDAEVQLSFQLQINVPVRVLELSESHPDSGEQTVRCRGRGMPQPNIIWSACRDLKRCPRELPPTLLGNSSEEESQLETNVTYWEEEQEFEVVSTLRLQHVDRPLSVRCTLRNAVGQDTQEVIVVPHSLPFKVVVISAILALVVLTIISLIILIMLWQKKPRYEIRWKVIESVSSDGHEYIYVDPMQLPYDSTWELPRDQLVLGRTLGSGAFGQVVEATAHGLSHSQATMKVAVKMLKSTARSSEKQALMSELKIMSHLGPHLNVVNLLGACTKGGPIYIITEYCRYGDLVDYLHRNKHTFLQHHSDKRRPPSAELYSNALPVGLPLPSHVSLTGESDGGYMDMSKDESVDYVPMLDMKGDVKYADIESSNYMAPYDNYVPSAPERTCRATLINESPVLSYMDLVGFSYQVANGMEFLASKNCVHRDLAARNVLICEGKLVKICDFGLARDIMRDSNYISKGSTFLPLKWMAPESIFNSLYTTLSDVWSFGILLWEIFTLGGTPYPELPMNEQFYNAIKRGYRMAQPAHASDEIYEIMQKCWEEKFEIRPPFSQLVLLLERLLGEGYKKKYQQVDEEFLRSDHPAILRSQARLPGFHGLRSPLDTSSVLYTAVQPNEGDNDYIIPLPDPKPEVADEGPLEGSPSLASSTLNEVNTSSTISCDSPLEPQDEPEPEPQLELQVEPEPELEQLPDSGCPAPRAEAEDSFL
# Procedure, shortened: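 Radiometric assay: recombinant PDGFRβ with poly(Glu4:Tyr1) in MOPS pH 7.0 buffer containing Mg2+/Mn2+, 10 μM ATP plus [33P]-ATP, and compound at 4% DMSO final. Incubated 60 min at 30° C, stopped with phosphoric acid, filter-captured and scintillation-counted. IC50 from curve fitting.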
# [5] = target: c-KIT kinase (Homo sapiens (Human), UniProt P10721); test: c-KIT kinase assay (radiometric); type: biochemical
# Sequence of c-KIT kinase (P10721 26-976): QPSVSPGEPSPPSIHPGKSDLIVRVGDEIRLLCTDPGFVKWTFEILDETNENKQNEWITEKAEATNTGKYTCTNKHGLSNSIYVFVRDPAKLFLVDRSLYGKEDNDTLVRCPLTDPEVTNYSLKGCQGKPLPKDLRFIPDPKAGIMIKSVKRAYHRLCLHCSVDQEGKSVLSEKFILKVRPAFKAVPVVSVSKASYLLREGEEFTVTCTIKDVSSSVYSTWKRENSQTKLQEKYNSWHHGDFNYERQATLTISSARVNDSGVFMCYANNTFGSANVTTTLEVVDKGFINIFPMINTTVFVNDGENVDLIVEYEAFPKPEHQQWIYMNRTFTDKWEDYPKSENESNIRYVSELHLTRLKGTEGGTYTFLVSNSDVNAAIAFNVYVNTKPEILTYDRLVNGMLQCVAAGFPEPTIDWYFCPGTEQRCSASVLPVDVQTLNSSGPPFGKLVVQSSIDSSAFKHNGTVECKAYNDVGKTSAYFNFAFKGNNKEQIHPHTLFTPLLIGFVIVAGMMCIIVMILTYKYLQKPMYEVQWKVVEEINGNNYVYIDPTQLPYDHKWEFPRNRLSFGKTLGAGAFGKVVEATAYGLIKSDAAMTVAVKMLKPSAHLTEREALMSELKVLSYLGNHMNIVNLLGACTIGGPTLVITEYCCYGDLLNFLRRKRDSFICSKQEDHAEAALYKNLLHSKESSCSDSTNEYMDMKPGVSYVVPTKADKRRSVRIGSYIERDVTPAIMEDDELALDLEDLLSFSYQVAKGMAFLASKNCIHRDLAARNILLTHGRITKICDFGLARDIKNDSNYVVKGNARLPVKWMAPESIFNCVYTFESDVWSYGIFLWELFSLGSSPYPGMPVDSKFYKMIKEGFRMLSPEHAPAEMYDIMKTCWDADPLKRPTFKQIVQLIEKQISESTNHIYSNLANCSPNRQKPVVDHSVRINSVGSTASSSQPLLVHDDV
# Procedure, shortened: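 Recombinant c-Kit (20 ng) with 2 μg Poly-(Glu4:Tyr1) in MOPS pH 7.0 buffer with MgCl2/MnCl2, 10 μM ATP plus [^33P]-ATP, 4% DMSO final, 60 min at 30° C. Stopped with phosphoric acid, filter-captured and scintillation counted; IC50 from curve fit.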
# [6] = target: CSF-1R kinase (Homo sapiens (Human), UniProt P07333); test: CSF-1R kinase assay (AlphaScreen); type: biochemical; conditions: class symbol
# Sequence of CSF-1R kinase (P07333 20-972): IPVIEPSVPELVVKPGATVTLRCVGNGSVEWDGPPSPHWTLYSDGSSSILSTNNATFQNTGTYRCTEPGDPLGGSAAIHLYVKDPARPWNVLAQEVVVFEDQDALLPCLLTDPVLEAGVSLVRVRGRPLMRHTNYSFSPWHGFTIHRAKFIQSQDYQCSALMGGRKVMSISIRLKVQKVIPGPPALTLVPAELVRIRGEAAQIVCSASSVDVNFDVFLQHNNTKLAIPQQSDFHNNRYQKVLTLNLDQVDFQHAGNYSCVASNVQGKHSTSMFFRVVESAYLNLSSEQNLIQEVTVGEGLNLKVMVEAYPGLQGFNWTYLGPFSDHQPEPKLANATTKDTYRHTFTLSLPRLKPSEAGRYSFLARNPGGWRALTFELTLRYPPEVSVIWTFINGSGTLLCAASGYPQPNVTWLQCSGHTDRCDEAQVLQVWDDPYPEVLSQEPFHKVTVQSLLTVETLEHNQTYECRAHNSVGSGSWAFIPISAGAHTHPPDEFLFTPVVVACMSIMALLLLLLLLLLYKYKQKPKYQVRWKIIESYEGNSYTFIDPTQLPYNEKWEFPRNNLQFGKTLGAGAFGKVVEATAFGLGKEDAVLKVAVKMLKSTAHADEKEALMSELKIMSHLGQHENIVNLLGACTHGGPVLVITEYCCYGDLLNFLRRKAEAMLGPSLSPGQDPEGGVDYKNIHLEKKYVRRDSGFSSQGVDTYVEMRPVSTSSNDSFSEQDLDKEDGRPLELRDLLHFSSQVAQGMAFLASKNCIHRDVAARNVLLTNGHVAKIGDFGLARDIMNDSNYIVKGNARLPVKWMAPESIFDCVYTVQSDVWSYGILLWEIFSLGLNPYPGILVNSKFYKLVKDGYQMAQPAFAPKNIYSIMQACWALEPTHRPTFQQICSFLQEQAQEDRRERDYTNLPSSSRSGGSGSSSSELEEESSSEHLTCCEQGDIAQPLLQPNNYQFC
# Description: Inhibition of CSF-1R kinase activity by a test compound disclosed herein was estimated by AlphaScreen (PerkinElmer). […] Reactions were incubated at 30° C. for 45 min and stopped by adding 5 μL of 50 mM EDTA. Analysis of resulting product using an AlphaScreen kit, and counted with Enspire Alpha (PerkinElmer). […] The IC50 values of quinoxaline compounds of this invention against CSF-1R kinase were determined using the GraphPad Prism 5 software.
# [7] = test system: osteoclast precursors (osteoclast differentiation); test: Osteoclast tartrate-resistant acid phosphatase assay; type: cell-based; conditions: 168 h, at 1 μM treatment, 7 days, RANKL and M-CSF, read-out: inhibition activity against osteoclast differentiation
# Procedure, shortened: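 Differentiation inhibition was scored at 1 μM compound in duplicate, using supernatant TRAP activity read at 550 nm with an acid phosphatase kit.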
# [8] = test system: Kasumi-1 human acute myeloid leukemia cell with c-KIT N822K activating mutation; test: Kasumi-1 cell proliferation assay (CellTiter-96); type: cell-based; conditions: Cytotoxicity, Kasumi-1 cells, 72 hours
# Procedure, shortened: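 Kasumi-1 cells, seeded at 64000 cells/well and incubated overnight at 37 °C, were exposed to increasing compound concentrations for 72 h. Viability was measured by CellTiter96 AQueous One reagent (4 h) and absorbance at 490 nm.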
# [9] = test system: MV4-11 human acute myeloid leukemia cell with FLT3-ITD mutation; test: MV4-11 cell proliferation assay (CellTiter-96); type: cell-based; conditions: Cytotoxicity, MV4-11 cells, 72 hours
# Procedure, shortened: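 MV4-11 cells (FLT3-ITD, FLT3-dependent growth) seeded at 6500 cells/well, incubated overnight at 37° C., 5% CO2, then exposed to increasing compound concentrations for 72 hours. Viability read by CellTiter96 AQueous One reagent (4 hours), absorbance at 490 nm.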
SMILES,IC50 [1] [µM],IC50 [2] [µM],IC50 [3] [µM],IC50 [4] [µM],IC50 ([5]; class symbol) [µM],IC50 [6] [µM],inhibition at 1 µM [7] [%],IC50 [8] [µM],IC50 [9] [µM],IC50 ([5]; bound) [µM]
"COc1ccc(COc2ccc(Nc3ccc4ncc(N5CCC(N(C)C)CC5)nc4c3C#N)cc2OC)cc1F [Example 85, 3-(4-(dimethylamino)piperidin-1-yl)-6-((4-((3-fluoro-4-methoxy-benzyl)oxy)-3-methoxyphenyl)amino)quinoxaline-5-carbonitrile]",1 to 10,> 1,< 0.3,> 1,< 0.1,< 0.1,> 50,< 0.3,1 to 10,
"COc1cc(Nc2ccc3ncc(N4C[C@@H](C)O[C@@H](C)C4)nc3c2C#N)ccc1OCc1ccc(C)nc1 [Example 145, 3-((2S,6R)-2,6-dimethylmorpholino)-6-((3-methoxy-4-((6-methyl-pyridin-3-yl)methoxy)phenyl)amino)quinoxaline-5-carbonitrile]",> 10,> 1,< 0.3,> 1,0.1 to 0.3,< 0.1,> 50,0.3 to 1,1 to 10,
"COc1cc(Nc2ccc3ncc(N4CCOCC4)nc3c2C#N)ccc1OCc1cnn(CCF)c1 [Example 131, 6-((4-((1-(2-fluoroethyl)-1H-pyrazol-4-yl)methoxy)-3-methoxyphenyl)amino)-3-morpholinoquinoxaline-5-carbonitrile]",> 10,> 1,< 0.3,> 1,0.3 to 1,< 0.1,> 50,> 10,> 10,
"COc1ccc(COc2ccc(Nc3ccc4ncc(N5CCN(C6CC6)CC5)nc4c3C#N)cc2OC)cn1 [Example 118, 3-(4-cyclopropylpiperazin-1-yl)-6-((3-methoxy-4-((6-methoxypyridin-3-yl)methoxy)phenyl)amino)quinoxaline-5-carbonitrile]",> 10,> 1,< 0.3,> 1,0.1 to 0.3,< 0.1,> 50,1 to 10,> 10,
"CNc1cnc2ccc(Nc3ccc(OCc4ccc(OC)cc4)c(OC)c3)c(C#N)c2n1 [Example 12, 6-((3-methoxy-4-((4-methoxybenzyl)oxy)phenyl)amino)-3-(methylamino)quinoxaline-5-carbonitrile]",> 10,> 1,< 0.3,> 1,< 0.1,< 0.1,> 50,0.3 to 1,> 10,
"COc1ccc(COc2ncc(Nc3ccc4ncc(N5CCOCC5)nc4c3C#N)cc2OC)cc1 [Example 37, 6-((5-methoxy-6-((4-methoxybenzyl)oxy)pyridin-3-yl)amino)-3-morpholinoquinoxaline-5-carbonitrile]",> 10,> 1,< 0.3,> 1,,< 0.1,> 50,> 10,> 10,> 1
"CCn1cc(COc2ccc(Nc3ccc4ncc(N5CCOCC5)nc4c3C#N)cc2OC)cn1 [Example 116, 6-((3-methoxy-4-((1-ethyl-1H-pyrazol-4-yl)methoxy)phenyl)amino)-3-morpholinoquinoxaline-5-carbonitrile]",> 10,> 1,< 0.3,> 1,0.1 to 0.3,< 0.1,> 50,0.3 to 1,1 to 10,
"COc1cc(Nc2ccc3ncc(N4CCOCC4)nc3c2C#N)ccc1OCc1cccs1 [Example 127, 6-((3-methoxy-4-(thiophen-2-ylmethoxy)phenyl)amino)-3-morpholinoquinoxaline-5-carbonitrile]",> 10,> 1,1 to 10,> 1,< 0.1,< 0.1,> 50,0.3 to 1,1 to 10,
